Measurements from ChEMBL document CHEMBL5034010, “Novel Cephalosporin Conjugates Display Potent and Selective Inhibition of Imipenemase-Type Metallo-β-Lactamases” (J Med Chem, 2021).
In brackets after ≈: the same amount, converted by molar mass. Activity calls are given as the source filed them. The rule behind the calls is not given here.

Assays:
Escherichia coli [1] = test: Substrate activity at Escherichia coli beta-lactamase NDM-1 assessed as compound hydrolysis by measuring kcat/km by Michaelis-Menten analysis
Escherichia coli [2] = test: Antibacterial activity against beta-lactamase VIM2 producing Escherichia coli clinical isolate measured upto 128 ug/ml; format: functional, organism-based
[3] = Inhibition of Enterobacter cloacae IMP-1 using nitrocefin chromogenic substrate measured after 15 to 60 min at 25 degC by microplate reader
[4] = Inhibition of Escherichia coli beta-lactamase VIM-2 using nitrocefin chromogenic substrate measured after 15 to 60 min at 25 degC by microplate reader
Klebsiella pneumoniae [5] = test: Inhibition of Metallo-beta-lactamase IMP-28 in Klebsiella pneumoniae clinical isolate assessed as MIC for meropenem antibacterial activity at 128 ug/ml (reference value: 4 ug/ml); settings: dose 128.0 µg/ml
Enterobacter cloacae [6] = test: Inhibition of Metallo-beta-lactamase IMP-1 in Enterobacter cloacae clinical isolate assessed as fold reduction in meropenem MIC at 64 ug/ml; settings: dose 64.0 µg/ml
Klebsiella pneumoniae [7] = test: Inhibition of Metallo-beta-lactamase IMP-28 in Klebsiella pneumoniae clinical isolate assessed as fold reduction in meropenem MIC at 128 ug/ml; settings: dose 128.0 µg/ml
Escherichia coli [8] = test: Inhibition of Metallo-beta-lactamase VIM-2 in Escherichia coli clinical isolate assessed as MIC for meropenem antibacterial activity at 64 ug/ml (reference value: 8 ug/ml); settings: dose 64.0 µg/ml
Escherichia coli [9] = test: Inhibition of Metallo-beta-lactamase NDM-1 in Escherichia coli clinical isolate assessed as fold reduction in meropenem MIC at 128 ug/ml; settings: dose 128.0 µg/ml
Escherichia coli [10] = test: Substrate activity at Escherichia coli beta-lactamase NDM-1 assessed as compound hydrolysis by measuring Km by Michaelis-Menten analysis
Enterobacter cloacae [11] = test: Inhibition of Metallo-beta-lactamase IMP-1 in Enterobacter cloacae clinical isolate assessed as MIC for meropenem antibacterial activity at 128 ug/ml (reference value: 32 ug/ml); settings: dose 128.0 µg/ml
Escherichia coli [12] = test: Antibacterial activity against beta-lactamase NDM1 producing Escherichia coli clinical isolate measured upto 128 ug/ml; format: functional, organism-based
Escherichia coli [13] = test: Inhibition of Metallo-beta-lactamase VIM-2 in Escherichia coli clinical isolate assessed as fold reduction in meropenem MIC at 32 ug/ml; settings: dose 32.0 µg/ml
Klebsiella pneumoniae [14] = test: Inhibition of Metallo-beta-lactamase IMP-28 in Klebsiella pneumoniae clinical isolate assessed as MIC for meropenem antibacterial activity at 64 ug/ml (reference value: 4 ug/ml); settings: dose 64.0 µg/ml
[15] = Stability of the compound in Muller hinton broth assessed compound remaining measured after 15 hrs by HPLC analysis; format: physicochemical; settings: Mueller Hinton broth, read-out: Stability
Enterobacter cloacae [16] = test: Inhibition of Metallo-beta-lactamase IMP-1 in Enterobacter cloacae clinical isolate assessed as fold reduction in meropenem MIC at 128 ug/ml; settings: dose 128.0 µg/ml
Escherichia coli [17] = test: Substrate activity at Escherichia coli beta-lactamase VIM-2 assessed as compound hydrolysis by measuring Kcat/Km by Michaelis-Menten analysis
Escherichia coli [18] = test: Substrate activity at Escherichia coli beta-lactamase VIM-2 assessed as compound hydrolysis by measuring Kcat by Michaelis-Menten analysis
Klebsiella pneumoniae [19] = test: Substrate activity at Klebsiella pneumoniae beta-lactamase IMP-28 assessed as compound hydrolysis by measuring Km by Michaelis-Menten analysis
Escherichia coli [20] = test: Inhibition of Metallo-beta-lactamase NDM-1 in Escherichia coli clinical isolate assessed as fold reduction in meropenem MIC at 64 ug/ml; settings: dose 64.0 µg/ml
Escherichia coli [21] = test: Inhibition of Metallo-beta-lactamase VIM-2 in Escherichia coli clinical isolate assessed as fold reduction in meropenem MIC at 128 ug/ml; settings: dose 128.0 µg/ml
Escherichia coli [22] = test: Substrate activity at Escherichia coli beta-lactamase NDM-1 assessed as compound hydrolysis by measuring Kcat by Michaelis-Menten analysis
Klebsiella pneumoniae [23] = test: Inhibition of Metallo-beta-lactamase IMP-28 in Klebsiella pneumoniae clinical isolate assessed as fold reduction in meropenem MIC at 32 ug/ml; settings: dose 32.0 µg/ml
Escherichia coli [24] = test: Inhibition of Metallo-beta-lactamase NDM-1 in Escherichia coli clinical isolate assessed as MIC for meropenem antibacterial activity at 32 ug/ml (reference value: 32 ug/ml); settings: dose 32.0 µg/ml
Escherichia coli [25] = test: Inhibition of Metallo-beta-lactamase VIM-2 in Escherichia coli clinical isolate assessed as fold reduction in meropenem MIC at 64 ug/ml; settings: dose 64.0 µg/ml
Klebsiella pneumoniae [26] = test: Antibacterial activity against beta-lactamase IMP-28 producing Klebsiella pneumoniae clinical isolate measured upto 128 ug/ml; format: functional, organism-based
Klebsiella pneumoniae [27] = test: Inhibition of Klebsiella pneumoniae beta Metallo-beta-lactamase IMP-28
[28] = Inhibition of Escherichia coli beta-lactamase NDM-1 using nitrocefin chromogenic substrate measured after 15 to 60 min at 25 degC by microplate reader
[29] = Stability of the compound assessed as Klebsiella pneumoniae beta-lactamase IMP-28-mediated degradation by measuring appearance of vinyl protons release measured after 120 mins by NMR spectra; format: ADME; settings: 2 h
Klebsiella pneumoniae [30] = test: Inhibition of Metallo-beta-lactamase IMP-28 in Klebsiella pneumoniae clinical isolate assessed as MIC for meropenem antibacterial activity at 32 ug/ml (reference value: 4 ug/ml); settings: dose 32.0 µg/ml
Klebsiella pneumoniae [31] = test: Substrate activity at Klebsiella pneumoniae beta-lactamase IMP-28 assessed as compound hydrolysis by measuring Kcat/Km by Michaelis-Menten analysis
Escherichia coli [32] = test: Inhibition of Metallo-beta-lactamase VIM-2 in Escherichia coli clinical isolate assessed as MIC for meropenem antibacterial activity at 128 ug/ml (reference value: 8 ug/ml); settings: dose 128.0 µg/ml
Enterobacter cloacae [33] = test: Inhibition of Metallo-beta-lactamase IMP-1 in Enterobacter cloacae clinical isolate assessed as MIC for meropenem antibacterial activity at 32 ug/ml (reference value: 32 ug/ml); settings: dose 32.0 µg/ml
Escherichia coli [34] = test: Inhibition of Metallo-beta-lactamase NDM-1 in Escherichia coli clinical isolate assessed as MIC for meropenem antibacterial activity at 64 ug/ml (reference value: 32 ug/ml); settings: dose 64.0 µg/ml
Enterobacter cloacae [35] = test: Inhibition of Metallo-beta-lactamase IMP-1 in Enterobacter cloacae clinical isolate assessed as MIC for meropenem antibacterial activity at 64 ug/ml (reference value: 32 ug/ml); settings: dose 64.0 µg/ml
Escherichia coli [36] = test: Inhibition of Metallo-beta-lactamase NDM-1 in Escherichia coli clinical isolate assessed as fold reduction in meropenem MIC at 32 ug/ml; settings: dose 32.0 µg/ml
[37] = Inhibition of Klebsiella pneumoniae beta-lactamase IMP-28 using nitrocefin chromogenic substrate measured after 15 to 60 min at 25 degC by microplate reader
Escherichia coli [38] = test: Inhibition of Metallo-beta-lactamase NDM-1 in Escherichia coli clinical isolate assessed as MIC for meropenem antibacterial activity at 128 ug/ml (reference value: 32 ug/ml); settings: dose 128.0 µg/ml
Enterobacter cloacae [39] = test: Inhibition of Metallo-beta-lactamase IMP-1 in Enterobacter cloacae clinical isolate assessed as fold reduction in meropenem MIC at 32 ug/ml; settings: dose 32.0 µg/ml
Escherichia coli [40] = test: Inhibition of Metallo-beta-lactamase VIM-2 in Escherichia coli clinical isolate assessed as MIC for meropenem antibacterial activity at 32 ug/ml (reference value: 8 ug/ml); settings: dose 32.0 µg/ml
Klebsiella pneumoniae [41] = test: Inhibition of Metallo-beta-lactamase IMP-28 in Klebsiella pneumoniae clinical isolate assessed as fold reduction in meropenem MIC at 64 ug/ml; settings: dose 64.0 µg/ml
Enterobacter cloacae [42] = test: Inhibition of Enterobacter cloacae Metallo-beta-lactamase IMP-1
Enterobacter cloacae [43] = test: Antibacterial activity against beta-lactamase IMP1 producing Enterobacter cloacae clinical isolate measured upto 128 ug/ml; format: functional, organism-based
Klebsiella pneumoniae [44] = test: Substrate activity at Klebsiella pneumoniae beta-lactamase IMP-28 assessed as compound hydrolysis by measuring Kcat by Michaelis-Menten analysis
Escherichia coli [45] = test: Substrate activity at Escherichia coli beta-lactamase VIM-2 assessed as compound hydrolysis by measuring Km by Michaelis-Menten analysis
[46] = Metabolic stability of the compound assessed as Klebsiella pneumoniae beta-lactamase IMP-28-mediated metabolism by (2R)-2-((R)-carboxy(2-phenylacetamido)methyl)-5-((carboxy(phenyl)methylthio)methyl)-5,6-dihydro-2H-1,3-thiazine-4-carboxylic acid by LC-MS analysis; format: ADME

SMILES: O=C(Cc1ccccc1)N[C@@H]1C(=O)N2C(C(=O)O)=C(CSC(C(=O)O)c3ccccc3)CS[C@H]12 (stereo partly specified)
- kcat/Km (Escherichia coli [1]): 936000 M⁻¹ s⁻¹
- Activity (Escherichia coli [2]): inactive
- IC50 [3]: 470 nM
- IC50 [4]: 10000 nM
- MIC (Klebsiella pneumoniae [5]): < 0.063 µg/mL
- fold change (FC) (Enterobacter cloacae [6]): 64
- fold change (FC) (Klebsiella pneumoniae [7]): > 64
- MIC (Escherichia coli [8]): 2 µg/mL (≈ 4.01 µM)
- fold change (FC) (Escherichia coli [9]): 4
- Km (Escherichia coli [10]): 14 µM
- MIC (Enterobacter cloacae [11]): 0.5 µg/mL (≈ 1 µM)
- Activity (Escherichia coli [12]): inactive
- fold change (FC) (Escherichia coli [13]): 2
- MIC (Klebsiella pneumoniae [14]): < 0.063 µg/mL
- remaining at 15 h [15]: > 95%
- fold change (FC) (Enterobacter cloacae [16]): 64
- kcat/Km (Escherichia coli [17]): 490000 M⁻¹ s⁻¹
- kcat (Escherichia coli [18]): 4.06 s⁻¹
- Km (Klebsiella pneumoniae [19]): 129 µM
- fold change (FC) (Escherichia coli [20]): 2
- fold change (FC) (Escherichia coli [21]): 8
- kcat (Escherichia coli [22]): 13.1 s⁻¹
- fold change (FC) (Klebsiella pneumoniae [23]): > 64
- MIC (Escherichia coli [24]): 16 µg/mL (≈ 32.1 µM)
- fold change (FC) (Escherichia coli [25]): 4
- Activity (Klebsiella pneumoniae [26]): inactive
- inhibition (Klebsiella pneumoniae [27]): Active
- IC50 [28]: > 100000 nM
- Stability [29]: Stable
- MIC (Klebsiella pneumoniae [30]): < 0.063 µg/mL
- kcat/Km (Klebsiella pneumoniae [31]): 3000 M⁻¹ s⁻¹
- MIC (Escherichia coli [32]): 1 µg/mL (≈ 2.01 µM)
- MIC (Enterobacter cloacae [33]): 1 µg/mL (≈ 2.01 µM)
- MIC (Escherichia coli [34]): 16 µg/mL (≈ 32.1 µM)
- MIC (Enterobacter cloacae [35]): 0.5 µg/mL (≈ 1 µM)
- fold change (FC) (Escherichia coli [36]): 2
- IC50 [37]: 460 nM
- MIC (Escherichia coli [38]): 8 µg/mL (≈ 16 µM)
- fold change (FC) (Enterobacter cloacae [39]): 32
- MIC (Escherichia coli [40]): 4 µg/mL (≈ 8.02 µM)
- fold change (FC) (Klebsiella pneumoniae [41]): > 64
- inhibition (Enterobacter cloacae [42]): Active
- Activity (Enterobacter cloacae [43]): inactive
- kcat (Klebsiella pneumoniae [44]): 0.386 s⁻¹
- Km (Escherichia coli [45]): 8.28 µM
- Drug metabolism [46]: Metabolite_Detected
